Values after ≈ are worked out from the molar mass of the structure shown.

For this data set the following is noted: buffer; pH 7.4; 200.0 µM.
In turn, `Br.CCCCCCCCn1ccc(=N)cc1` had a solubility (kinetic) above 43.1 µg/mL. The result for `Cc1cc(Cl)nc(-c2ccccc2)n1` reads 0.3 µg/mL (≈ 1.47 µM); that for `CCOC(=O)N1CCN(Cc2ccc3ccccc3c2)CC1`, 26.9 µg/mL (≈ 90.2 µM).

In the case of `N#Cc1ccc(NC(=O)c2cccs2)nc1`, the solubility (kinetic) is above 34.4 µg/mL. In turn, `CC1CCCC(NC(=O)CCCn2c(=S)[nH]c3ccccc3c2=O)C1C` (centres undefined) gave a solubility (kinetic) below 0.3 µg/mL. Next, `CC(=O)N1CCN(c2nc3ccc([N+](=O)[O-])cc3s2)CC1`: 31.7 µg/mL (≈ 103 µM). In turn, `Cc1ccnc(NC(=O)CNC(=O)c2cccs2)c1` yielded a solubility (kinetic) above 41.3 µg/mL. Next, `CSc1ccccc1NC(=O)COC(=O)c1ccccc1O`: 2 µg/mL (≈ 6.3 µM). Consider `CN(C(=O)CN1C(=O)c2ccccc2S1(=O)=O)C1CCCCC1`, for which the kinetic solubility is above 50.5 µg/mL. Compound `COc1ccc(CN(C)C(=O)CNC(=O)c2ccc(C)cc2)cc1` gave a kinetic solubility above 49 µg/mL. For `CC1(C)C2C/C(=N\O)C(C)(/[N+]([O-])=C/c3cccc([N+](=O)[O-])c3)CC21` (centres undefined), the kinetic solubility worked out at 45.2 µg/mL (≈ 136 µM). For the compound `Nc1ncccc1OCc1ccc(Cl)c(Cl)c1`, the solubility (kinetic) amounted to 29.7 µg/mL (≈ 110 µM). The result for `Cc1ccc(C(=O)C2CCN(CC(=O)Nc3ccccc3C)CC2)cc1` reads 1.7 µg/mL (≈ 4.85 µM); that for `Fc1ccc(NC(=S)N2CCc3ccccc32)cc1`, 3.1 µg/mL (≈ 11.4 µM). The result for `O=C(COC(=O)c1cccs1)NCCc1ccc(F)cc1` reads 42.2 µg/mL (≈ 137 µM); that for `COc1ccc(C(=O)N=c2sc3ccccc3n2C)cc1`, below 0.3 µg/mL; that for `Cc1ccc(C2=CSC3=NS(=O)(=O)CCN23)cc1`, above 42.1 µg/mL.

The compound `Cc1ccc(NC(=O)CC2NCCN(Cc3ccccc3)C2=O)cc1` (centres undefined) registered a kinetic solubility of 43.6 µg/mL (≈ 129 µM). Next, `O=C(NCc1ccco1)c1ccc(Cl)nc1`: above 35.5 µg/mL; `Cc1cc(NCCCN(C)C)n2c(nc3ccccc32)c1C#N`: above 46.1 µg/mL; `COc1ccccc1C(=O)O/N=C(\N)c1ccccn1`: above 40.7 µg/mL. `COc1ccc(CNC(=S)Nc2ccccc2)cc1Cl` returned a solubility (kinetic) of 31.7 µg/mL (≈ 103 µM). In the case of `N#Cc1cccc(Cn2cc(C(F)(F)F)ccc2=O)c1`, the kinetic solubility was determined as 41.7 µg/mL (≈ 150 µM). The result for `O=C1C=C(N2CCCCCC2)C(=O)N1c1ccc(Cl)cc1` reads 8.9 µg/mL (≈ 29.2 µM). Regarding `Cl.O=C(O)C1CCN(Cc2ccccn2)CC1`, the kinetic solubility was 34.4 µg/mL. As for `N#C/C(=C\c1ccc(O)c(O)c1)C(=O)N1CCCC1`, the kinetic solubility stood at 37.3 µg/mL (≈ 144 µM).

Compound `COc1ccc(NC(=O)NS(=O)(=O)c2ccc(C)cc2)cc1OC` came in with a kinetic solubility above 52.6 µg/mL. The result for `CN(C)c1cc2c(cc1NS(=O)(=O)c1ccccc1)n(C)c(=O)n2C` reads 48 µg/mL (≈ 133 µM).

For the compound `O=C(NC(=S)Nc1ccc(Cl)cc1Cl)C1CC1`, the solubility (kinetic) was 0.8 µg/mL (≈ 2.77 µM). The result for `c1ccc(NC2=NCCS2)cc1` reads 23.5 µg/mL (≈ 132 µM).

`CCOc1ccc(S(=O)(=O)N2CCN(c3ncccn3)CC2)cc1` displayed a solubility (kinetic) of 2.7 µg/mL (≈ 7.75 µM). Next, `CC1CCCC(NC(=O)COC(=O)COc2cccc(F)c2)C1C` (centres undefined): 20.2 µg/mL (≈ 59.9 µM); `CCCCCOc1ccc(NC2=CC(=O)CCC2)cc1`: above 41 µg/mL. The result for `COc1ccc(/C=C2\SC(N)=NC2=O)cc1Cl` reads 3.1 µg/mL (≈ 11.5 µM). For the compound `C=CCN(CC=C)C(=S)Nc1ccc(OC)c(OC)c1`, the kinetic solubility was above 43.9 µg/mL. The result for `CCOC(=O)CN1C(=O)C2(OCCCO2)c2cc(Br)ccc21` reads 31.5 µg/mL (≈ 85.1 µM); that for `Cc1ccc(NC(=O)c2cccnc2C(=O)O)nc1`, above 38.6 µg/mL. The result for `COc1cccc(N/C(N)=N/c2nc(C)cc(=O)[nH]2)c1` reads 40.6 µg/mL (≈ 149 µM); that for `Cc1ccc2c(CN(C)Cc3cccc(F)c3)cc(=O)oc2c1`, 2 µg/mL (≈ 6.42 µM); that for `CCN1CCN(c2ncnc3scc(-c4ccc(C)c(C)c4)c23)CC1`, above 52.9 µg/mL. `CC1(C)NC(=O)N(CCOc2ccc([N+](=O)[O-])cc2)C1=O` registered a solubility (kinetic) above 44 µg/mL. Next, `Cc1ccc(OC(F)F)c(N2C(=O)C3C4CCC(O4)C3C2=O)c1` (centres undefined): above 48.5 µg/mL. Compound `Cc1ccccc1C(=O)Nc1cccc(C(=O)Nc2ccccc2C(=O)O)c1` registered a solubility (kinetic) above 56.2 µg/mL. The result for `C/C(=N\NC(N)=O)c1c(O)n(C)c(=O)n(C)c1=O` reads above 38.3 µg/mL. Next, `O=C(O)CCC(=O)Nc1cccc(C(=O)c2ccccc2)c1`: above 44.6 µg/mL; `Cn1c(N)c(C(=O)CSc2nnc(C3CC3)n2-c2ccccc2)c(=O)[nH]c1=O`: above 59.8 µg/mL. As to `Cc1ccc(CN(C)CC(=O)NC(C)c2ccccc2)cc1` (centres undefined), the solubility (kinetic) was above 44.5 µg/mL. Next, `CC1CN=C(Nc2ccc(F)c(Cl)c2)S1` (centres undefined): 17.3 µg/mL (≈ 70.7 µM); `Cc1ccsc1/C=N/NC(=O)C1CC(=O)N(c2ccc(F)cc2)C1` (centres undefined): above 51.8 µg/mL; `CC(OC(=O)c1cccc(O)c1)C(=O)N(C)Cc1ccccc1` (centres undefined): above 47 µg/mL. Turning to `COc1ccc2[nH]c(=S)cc(C)c2c1`, the kinetic solubility turned out to be 8.9 µg/mL (≈ 43.4 µM). The compound `Cn1cnc(S(=O)(=O)Nc2ccc(OC(F)F)cc2)c1` had a solubility (kinetic) above 45.5 µg/mL.

`O=C(COC(=O)/C=C/c1ccc(Cl)cc1)Nc1cccc(S(=O)(=O)NC2=NCCCCC2)c1` showed a solubility (kinetic) of 8.7 µg/mL (≈ 17.8 µM). Next, `Cc1ccc(NC(=O)CCC(=O)Nc2ccc(C)cc2)cc1`: below 0.3 µg/mL.

`Br.COc1ccc(C2=CSC3=NCCN23)cc1OC` gave a kinetic solubility above 51.5 µg/mL. Consider `CCOc1ccccc1N1CCN(Cc2cnc(-c3ccccc3)[nH]2)CC1`, for which the solubility (kinetic) was above 54.4 µg/mL. On to `Clc1ccc(Cl)c(-c2nc(-c3ccncc3)no2)c1`, for which the kinetic solubility was below 0.2 µg/mL. `Cc1cc(C)n(CC(=O)N2CCc3ccccc32)c(=O)c1C#N` showed a solubility (kinetic) of 7 µg/mL (≈ 22.8 µM).

`O=C(O)c1ccc(CNC(=O)c2ccc3c(c2)OCCO3)cc1` yielded a solubility (kinetic) above 47 µg/mL. For the compound `CCSC1=NCCN1C(=O)Cc1ccc(-c2ccccc2)cc1`, the kinetic solubility stood at 3.3 µg/mL (≈ 10.2 µM). Next, `Cc1cc(C(=O)OCC(=O)Nc2cccc([N+](=O)[O-])c2)c(C)o1`: 3.8 µg/mL (≈ 11.9 µM). The result for `Nc1ccn([C@H]2C[C@H](O)[C@@H](CO)O2)c(=O)n1.O` reads above 36.8 µg/mL; that for `O=C(CSCc1c(Cl)cccc1Cl)Nc1cccnc1`, 35.9 µg/mL (≈ 110 µM); that for `CCOC(=O)N[C@H](Cc1c[nH]c2ccccc12)C(=O)NC1CC1`, above 47.3 µg/mL. `CCOc1ccc(C(=O)NCC(c2cccs2)N2CCOCC2)cc1` (centres undefined) had a solubility (kinetic) above 54.1 µg/mL. Turning to `Cn1c(=O)n(Cc2ccccc2Cl)c2ccccc21`, the kinetic solubility was above 40.9 µg/mL. The result for `COc1ccc(S(=O)(=O)N2CCOCC2)cc1NC(=O)Cc1ccsc1` reads 7.6 µg/mL (≈ 19.2 µM); that for `Cn1c(=O)[nH]c2c(Cl)nccc21`, above 27.5 µg/mL.

`O=C(CCN=C1NS(=O)(=O)c2ccccc21)Nc1ccc(F)cc1Cl` returned a solubility (kinetic) above 57.3 µg/mL. Regarding `COC(=O)c1cc(C(=O)NCc2ccc3c(c2)OCO3)cc([N+](=O)[O-])c1`, the kinetic solubility was determined as 2.6 µg/mL (≈ 7.26 µM).

`COc1ccc(C(=O)N2CCN(c3ccccc3OC)CC2)cc1` showed a kinetic solubility above 49 µg/mL. The compound `CC1CCCCC1NC(=O)c1ccco1` (centres undefined) registered a kinetic solubility above 31.1 µg/mL. The compound `CCN(Cc1cc(=O)[nH]c2ccccc12)C(=O)c1ccc(C)cc1` yielded a kinetic solubility of 41.3 µg/mL (≈ 129 µM). In turn, `C=CCNc1ccc(N2C(=O)CCCC2=O)cc1[N+](=O)[O-]` came in with a kinetic solubility above 43.4 µg/mL.

In turn, `COc1cc(Cl)c(C)cc1NC(=O)Cc1cccs1` returned a solubility (kinetic) of 1 µg/mL (≈ 3.38 µM). As for `O=C1C(Cl)=CC(=Nc2ccc([O-])cc2)C=C1Cl.[Na+]`, the solubility (kinetic) is above 43.5 µg/mL. The compound `CCCN1C(=O)N(c2cccc(C)c2)C(C)(O)CC1(C)C` (centres undefined) showed a solubility (kinetic) above 43.6 µg/mL. For the compound `Cc1ccc(C(=O)CCC(=O)N2CCC(C(N)=O)CC2)cc1`, the kinetic solubility was found to be 43.5 µg/mL (≈ 144 µM).

For the compound `COc1ccccc1N1CCN(C(=O)c2cc(C(C)(C)C)oc2C)CC1`, the solubility (kinetic) turned out to be 41.8 µg/mL (≈ 117 µM). For the compound `O=C(COc1ccc2c3c(c(=O)oc2c1)CCC3)N1CCCC1`, the solubility (kinetic) was found to be 15.8 µg/mL (≈ 50.4 µM). The result for `Nc1nccnc1C(=O)OCC(=O)c1ccc[nH]1` reads above 36.9 µg/mL; that for `O=C(c1cccc(S(=O)(=O)N2CCCc3ccccc32)c1)N1CCN(c2ccccc2)CC1`, 3.6 µg/mL (≈ 7.8 µM). `Cc1ccc(O)c(Nc2nc(-c3ccccc3)nc3ccccc23)c1` displayed a solubility (kinetic) below 0.2 µg/mL.

`O=C(COC(=O)c1c(Cl)cccc1Cl)NC1CCCCCCC1` gave a solubility (kinetic) of 8.2 µg/mL (≈ 22.9 µM).

Consider `Cc1ccc(C(=O)C(C)[n+]2cccc(C(N)=O)c2)cc1.[Br-]` (centres undefined), for which the kinetic solubility is above 52.4 µg/mL. The result for `CN1CCCN(C(=O)CSc2ccccc2)CC1` reads 39.3 µg/mL (≈ 149 µM).

In turn, `Cc1cc(NC(=O)COC(=O)C2CC(=O)N(c3ccccc3)C2)no1` (centres undefined) returned a solubility (kinetic) above 51.5 µg/mL. Next, `CC(NC(=O)Nc1cccc(F)c1)c1ccc2c(c1)OCO2` (centres undefined): 2.1 µg/mL (≈ 6.95 µM). For `O=C(O)CC1(CC(=O)Nc2cccc(C(=O)O)c2)CCCC1`, the kinetic solubility is above 45.8 µg/mL. The compound `O=C(CSc1ncnc2ccccc12)NCc1ccc2c(c1)OCO2` returned a kinetic solubility of 10.1 µg/mL (≈ 28.6 µM). Next, `COc1ccc(OC)c(C(=O)c2ccccn2)c1`: above 36.5 µg/mL; `O=[N+]([O-])c1ccc(C2CCCC/C2=N/O)c([N+](=O)[O-])c1` (centres undefined): 8.8 µg/mL (≈ 31.5 µM).

As for `CC(=O)Nc1ccc(C(=O)OCC(=O)Nc2ccc(N3CCOCC3)cc2)cc1`, the kinetic solubility came to 7 µg/mL (≈ 17.6 µM). Consider `COc1ccc(CC(CN)c2ccccc2)cc1` (centres undefined), for which the solubility (kinetic) came out at 29.5 µg/mL (≈ 122 µM). The result for `COc1ccc(OC)c(NC(=O)CCc2c[nH]c3ccccc23)c1` reads 10.9 µg/mL (≈ 33.6 µM); that for `O=C(Nc1ccc(F)cc1)C(NC1CCCCC1)c1ccccc1` (centres undefined), 40.6 µg/mL (≈ 124 µM); that for `CSc1ncccc1C(=O)OCCCC(=O)c1ccc(F)cc1`, 3.8 µg/mL (≈ 11.4 µM). `Cn1c(=O)c2c(nc3n2CCS3)n(C)c1=O`: the kinetic solubility was above 35.7 µg/mL. The result for `Cc1ccc(CSc2nsc(C)c2C#N)cc1` reads 3.3 µg/mL (≈ 12.7 µM). Next, `O=C1C(Cc2ccc3[nH]ccc3c2)NC(=S)N1c1ccccc1` (centres undefined): above 48.2 µg/mL; `O=C(NCc1cccs1)C1CC(c2ccc(Cl)cc2)=NO1` (centres undefined): 1.3 µg/mL (≈ 4.05 µM). Next, `CCOC(=O)Cc1csc(NC(=O)c2cc(C)on2)n1`: above 44.3 µg/mL. Consider `O=C(COC(=O)c1ccc(Cl)nc1)NC1CCCc2ccccc21` (centres undefined), for which the kinetic solubility came to 36.1 µg/mL (≈ 105 µM). The compound `COc1ccc(N2CCOCC2)c(NC(=O)c2ccco2)c1` had a solubility (kinetic) of 38.4 µg/mL (≈ 127 µM).
